Experimental findings from patent US9346815B2, “5-chloro-2-difluoromethoxyphenyl pyrazolopyrimidine compounds, compositions and methods of use thereof” (Genentech, Inc., priority 2014, dated 2016) are described below.

Test [1] relates to JAK1-dependent STAT6 phosphorylation downstream of IL-13 stimulation in TF-1 human erythroleukemia cells. In words: JAK1 pathway assay in TF-1 cells (IL-13-pSTAT6, MSD). The format is cell-based. The conditions noted are these: Homo sapiens, TF-1, TF-1 cells, read-out: IL13-pSTAT6 EC50_TF-1. Summed up:
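Compound preincubation lasted 1 hr for BEAS-2B cells in complete growth medium and 30 min for GM-CSF-starved TF-1 cells in serum-free medium. EC50 values were determined.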

Test [2] addresses isolated recombinant JAK1 kinase domain (Homo sapiens (Human), UniProt P23458). In words: JAK1 enzyme assay (Caliper LabChip, peptide phosphorylation). Format: biochemical. The note with it: isolated recombinant JAK1 kinase domain, 25 μM ATP.
The target in test [3] is isolated recombinant JAK2 kinase domain (Homo sapiens (Human), UniProt O60674). In words: JAK2 enzyme assay (Caliper LabChip, peptide phosphorylation). The format is biochemical. The note with it: 25 μM ATP.
Chain of isolated recombinant JAK2 kinase domain (O60674 849-1124): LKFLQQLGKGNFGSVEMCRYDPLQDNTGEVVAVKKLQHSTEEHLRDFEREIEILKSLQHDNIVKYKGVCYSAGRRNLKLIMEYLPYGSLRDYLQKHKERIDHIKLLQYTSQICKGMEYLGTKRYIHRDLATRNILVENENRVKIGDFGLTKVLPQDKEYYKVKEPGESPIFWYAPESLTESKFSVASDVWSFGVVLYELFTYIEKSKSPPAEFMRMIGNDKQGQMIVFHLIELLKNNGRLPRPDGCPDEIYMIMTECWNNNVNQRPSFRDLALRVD

Chain of isolated recombinant JAK1 kinase domain (P23458 875-1153): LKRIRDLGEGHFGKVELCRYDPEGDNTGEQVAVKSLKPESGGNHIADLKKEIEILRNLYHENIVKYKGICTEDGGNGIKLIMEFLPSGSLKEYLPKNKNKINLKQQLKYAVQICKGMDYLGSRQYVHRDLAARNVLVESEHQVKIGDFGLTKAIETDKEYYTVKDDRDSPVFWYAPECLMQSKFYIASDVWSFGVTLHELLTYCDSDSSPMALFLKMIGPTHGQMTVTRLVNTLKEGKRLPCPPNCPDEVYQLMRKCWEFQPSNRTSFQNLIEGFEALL

As for `O=C(Nc1cn(CC(=O)N2C[C@H]3CN(CCCN4C(=O)Cc5ccccc54)C[C@H]3C2)nc1-c1cc(Cl)ccc1OC(F)F)c1cnn2cccnc12` [Example 54, N-[1-[2-[(3aR,6aS)-2-[3-(2-oxoindolin-1-yl)propyl]-1,3,3a,4,6,6a-hexahydropyrrolo[3,4-c]pyrrol-5-yl]-2-oxo-ethyl]-3-[5-chloro-2-(difluoromethoxy)phenyl]pyrazol-4-yl]pyrazolo[1,5-a]pyrimidine-3-carboxamide], the EC50 in test [1] is 15.1 nM. Further, the Ki (commonly the dissociation constant of the complex between target and ligand, obtained from inhibition or displacement) was 0.76 nM in test [2] and 0.67 nM in test [3].

Take `O=C(Nc1cn(CC(=O)N2C[C@H]3CN(CCCOC(=O)C4CCC4)C[C@H]3C2)nc1-c1cc(Cl)ccc1OC(F)F)c1cnn2cccnc12` [Example 55, 3-[(3aS,6aR)-5-[2-[3-[5-chloro-2-(difluoromethoxy)phenyl]-4-(pyrazolo[1,5-a]pyrimidine-3-carbonylamino)pyrazol-1-yl]acetyl]-1,3,3a,4,6,6a-hexahydropyrrolo[3,4-c]pyrrol-2-yl]propyl cyclobutanecarboxylate]: the EC50 in test [1] is 21 nM. The Ki in test [2] worked out at 0.85 nM; in test [3], 0.72 nM.

With `Nc1nn2cccnc2c1C(=O)Nc1cn(CC(=O)N2C[C@H]3CN(CC4CCC(F)(F)CC4)C[C@H]3C2)nc1-c1cc(Cl)ccc1OC(F)F` [Example 58, N-[1-[2-[(3aS,6aR)-2-[(4,4-difluorocyclohexyl)methyl]-1,3,3a,4,6,6a-hexahydropyrrolo[3,4-c]pyrrol-5-yl]-2-oxo-ethyl]-3-[5-chloro-2-(difluoromethoxy)phenyl]pyrazol-4-yl]-2-amino-pyrazolo[1,5-a]pyrimidine-3-carboxamide], the EC50 in test [1] was 25.6 nM. Besides, the Ki came to 0.6 nM in test [2] and 0.33 nM in test [3].

Take `O=C(Nc1cn(CC(=O)N2C[C@H]3CN(CCOCc4ccc(Cl)cc4)C[C@H]3C2)nc1-c1cc(Cl)ccc1OC(F)F)c1cnn2cccnc12` [Example 60, N-[1-[2-[(3aR,6aS)-2-[2-[(4-chlorophenyl)methoxy]ethyl]-1,3,3a,4,6,6a-hexahydropyrrolo[3,4-c]pyrrol-5-yl]-2-oxo-ethyl]-3-[5-chloro-2-(difluoromethoxy)phenyl]pyrazol-4-yl]pyrazolo[1,5-a]pyrimidine-3-carboxamide]: in test [1], the EC50 was determined as 46.2 nM. Also, the figures for the Ki in test [2] and in test [3] were 1.1 nM and 0.7 nM, respectively.

Take `CN(C)C1CCN(C(=O)Cn2cc(NC(=O)c3cnn4cccnc34)c(-c3cc(Cl)ccc3OC(F)F)n2)C1` (stereo not drawn) [Example 65, N-[3-[5-chloro-2-(difluoromethoxy)phenyl]-1-[2-[3-(dimethylamino)pyrrolidin-1-yl]-2-oxo-ethyl]pyrazol-4-yl]pyrazolo[1,5-a]pyrimidine-3-carboxamide]: the EC50 in test [1] worked out at 9.4 nM. Also, the Ki in test [2] was 0.54 nM; in test [3] it was 0.69 nM.

For `COCCN(C)C1CCN(C(=O)Cn2cc(NC(=O)c3cnn4cccnc34)c(-c3cc(Cl)ccc3OC(F)F)n2)CC1` [Example 68, N-[3-[5-chloro-2-(difluoromethoxy)phenyl]-1-[2-[4-[2-methoxyethyl(methyl)amino]-1-piperidyl]-2-oxo-ethyl]pyrazol-4-yl]pyrazolo[1,5-a]pyrimidine-3-carboxamide], in test [1], the EC50 stood at 13.4 nM. Further, the Ki came out at 0.74 nM in test [2] and 1.68 nM in test [3].

As to `O=C(Nc1cn(CC(=O)N2CCC(N3CCCC3)CC2)nc1-c1cc(Cl)ccc1OC(F)F)c1cnn2cccnc12` [Example 69, N-[3-[5-chloro-2-(difluoromethoxy)phenyl]-1-[2-oxo-2-(4-pyrrolidin-1-yl-1-piperidyl)ethyl]pyrazol-4-yl]pyrazolo[1,5-a]pyrimidine-3-carboxamide], the EC50 in test [1] was 20.4 nM. The values for the Ki in test [2] and in test [3] were 0.86 nM and 2.45 nM, respectively.

As to `CN(C)CC1CCN(C(=O)Cn2cc(NC(=O)c3cnn4cccnc34)c(-c3cc(Cl)ccc3OC(F)F)n2)CC1` [Example 70, N-[3-[5-chloro-2-(difluoromethoxy)phenyl]-1-[2-[4-[(dimethylamino)methyl]-1-piperidyl]-2-oxo-ethyl]pyrazol-4-yl]pyrazolo[1,5-a]pyrimidine-3-carboxamide], the EC50 in test [1] worked out at 16.1 nM. Also, the Ki in test [2] was 0.67 nM; in test [3], 2.38 nM.

On to `CN(C)C[C@@H]1CCCN(C(=O)Cn2cc(NC(=O)c3cnn4cccnc34)c(-c3cc(Cl)ccc3OC(F)F)n2)C1` [Example 72, N-[3-[5-chloro-2-(difluoromethoxy)phenyl]-1-[2-[(3S)-3-[(dimethylamino)methyl]-1-piperidyl]-2-oxo-ethyl]pyrazol-4-yl]pyrazolo[1,5-a]pyrimidine-3-carboxamide], for which the EC50 in test [1] stood at 7.2 nM. Also, the results for the Ki in test [2] and in test [3] were 1.17 nM and 4.07 nM, respectively.

For `CN(C)CC1(O)CCN(C(=O)Cn2cc(NC(=O)c3cnn4cccnc34)c(-c3cc(Cl)ccc3OC(F)F)n2)CC1` [Example 74, N-[3-[5-chloro-2-(difluoromethoxy)phenyl]-1-[2-[4-[(dimethylamino)methyl]-4-hydroxy-1-piperidyl]-2-oxo-ethyl]pyrazol-4-yl]pyrazolo[1,5-a]pyrimidine-3-carboxamide], the EC50 in test [1] is 38.5 nM. Further, the Ki in test [2] was 0.97 nM; in test [3], 2.42 nM.

In the case of `CCNC1CCN(C(=O)Cn2cc(NC(=O)c3c(N)nn4cccnc34)c(-c3cc(Cl)ccc3OC(F)F)n2)CC1` [Example 75, 2-amino-N-[3-[5-chloro-2-(difluoromethoxy)phenyl]-1-[2-[4-(ethylamino)-1-piperidyl]-2-oxo-ethyl]pyrazol-4-yl]pyrazolo[1,5-a]pyrimidine-3-carboxamide], the EC50 in test [1] stood at 78.7 nM. Besides, the figures for the Ki in test [2] and in test [3] were 0.66 nM and 0.61 nM, respectively.

Turning to `Nc1nn2cccnc2c1C(=O)Nc1cn(CC(=O)N2CCC(N3CC[C@H](O)C3)CC2)nc1-c1cc(Cl)ccc1OC(F)F` [Example 77, 2-amino-N-[3-[5-chloro-2-(difluoromethoxy)phenyl]-1-[2-[4-[(3S)-3-hydroxypyrrolidin-1-yl]-1-piperidyl]-2-oxo-ethyl]pyrazol-4-yl]pyrazolo[1,5-a]pyrimidine-3-carboxamide], the EC50 in test [1] worked out at 210 nM. Besides, the figures for the Ki in test [2] and in test [3] were 0.6 nM and 0.51 nM, respectively.

Turning to `CN(C)C[C@H]1CCCN1C(=O)Cn1cc(NC(=O)c2c(N)nn3cccnc23)c(-c2cc(Cl)ccc2OC(F)F)n1` [Example 78, 2-amino-N-[3-[5-chloro-2-(difluoromethoxy)phenyl]-1-[2-[(2R)-2-[(dimethylamino)methyl]pyrrolidin-1-yl]-2-oxo-ethyl]pyrazol-4-yl]pyrazolo[1,5-a]pyrimidine-3-carboxamide], the EC50 in test [1] worked out at 52.4 nM. The Ki in test [2] worked out at 2.08 nM; in test [3], 1.38 nM.

For the molecule `CN(C)C[C@@H]1CCCN1C(=O)Cn1cc(NC(=O)c2c(N)nn3cccnc23)c(-c2cc(Cl)ccc2OC(F)F)n1` [Example 79, 2-amino-N-[3-[5-chloro-2-(difluoromethoxy)phenyl]-1-[2-[(2S)-2-[(dimethylamino)methyl]pyrrolidin-1-yl]-2-oxo-ethyl]pyrazol-4-yl]pyrazolo[1,5-a]pyrimidine-3-carboxamide], the EC50 in test [1] amounted to 158 nM. Further, the Ki worked out at 4.54 nM in test [2] and 2.11 nM in test [3].

Turning to `CN(C)CC1(c2ccccc2)CCN(C(=O)Cn2cc(NC(=O)c3cnn4cccnc34)c(-c3cc(Cl)ccc3OC(F)F)n2)CC1` [Example 80, N-[3-[5-chloro-2-(difluoromethoxy)phenyl]-1-[2-[4-[(dimethylamino)methyl]-4-phenyl-1-piperidyl]-2-oxo-ethyl]pyrazol-4-yl]pyrazolo[1,5-a]pyrimidine-3-carboxamide], the EC50 in test [1] was found to be 4.9 nM. The figures for the Ki in test [2] and in test [3] were 0.43 nM and 0.87 nM, respectively.

As to `CN(C)C[C@@H]1CCCN(C(=O)Cn2cc(NC(=O)c3c(N)nn4cccnc34)c(-c3cc(Cl)ccc3OC(F)F)n2)C1` [Example 82, 2-amino-N-[3-[5-chloro-2-(difluoromethoxy)phenyl]-1-[2-[(3S)-3-[(dimethylamino)methyl]-1-piperidyl]-2-oxo-ethyl]pyrazol-4-yl]pyrazolo[1,5-a]pyrimidine-3-carboxamide], the EC50 in test [1] was 8.7 nM. Besides, the Ki in test [2] was determined as 1.17 nM; in test [3], 0.53 nM.

As to `O=C(Nc1cn(CC(=O)N2CCC(NC3CCC3)CC2)nc1-c1cc(Cl)ccc1OC(F)F)c1cnn2cccnc12` [Example 84, N-[3-[5-chloro-2-(difluoromethoxy)phenyl]-1-[2-[4-(cyclobutylamino)-1-piperidyl]-2-oxo-ethyl]pyrazol-4-yl]pyrazolo[1,5-a]pyrimidine-3-carboxamide], the EC50 in test [1] amounted to 24.6 nM. Moreover, the Ki worked out at 0.91 nM in test [2] and 1.47 nM in test [3].

In the case of `CN(CCc1ccccn1)C1CCN(C(=O)Cn2cc(NC(=O)c3cnn4cccnc34)c(-c3cc(Cl)ccc3OC(F)F)n2)CC1` [Example 86, N-[3-[5-chloro-2-(difluoromethoxy)phenyl]-1-[2-[4-[methyl-[2-(2-pyridyl)ethyl]amino]-1-piperidyl]-2-oxo-ethyl]pyrazol-4-yl]pyrazolo[1,5-a]pyrimidine-3-carboxamide], in test [1], the EC50 came out at 25.2 nM. In addition, the Ki was found to be 0.72 nM in test [2] and 1.6 nM in test [3].

Regarding `CN(C)C(=O)CCCN(C)C1CCN(C(=O)Cn2cc(NC(=O)c3cnn4cccnc34)c(-c3cc(Cl)ccc3OC(F)F)n2)CC1` [Example 88, N-[3-[5-chloro-2-(difluoromethoxy)phenyl]-1-[2-[4-[[4-(dimethylamino)-4-oxo-butyl]-methyl-amino]-1-piperidyl]-2-oxo-ethyl]pyrazol-4-yl]pyrazolo[1,5-a]pyrimidine-3-carboxamide], in test [1], the EC50 is 299 nM. In addition, the Ki was 1.72 nM in test [2] and 1.91 nM in test [3].
